From the supplement of paper PMC11061612 come the findings set out here.

Holding throughout (test): combination Emax (second highest fraction inhibited in the dose matrix, 72 h); higher = more inhibition; extreme values may be limits of the assay
The test system of assay [1] is KMRC-1 (Kidney Carcinoma). In outline:
(§1)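 Cell lines grown in DMEM/F12 or RPMI with 10% FBS were plated in 1536-well plates and held 24 hours at 37°C, 5% CO2 before 72 hours of exposure to two-drug dose matrices, with DMSO typically at 0.2%. CellTiter-Glo 2.0 luminescence gave viability, which was converted to inhibition. Vehicle wells were set to 0 and blank wells to 1. Combination Emax is the second-highest inhibition in the matrix, and Bliss excess is the observed combination effect minus the expected EA + EB − EA·EB, where EA and EB are the single-agent effects.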

The subject of assay [2] is DU-145 (Prostate Carcinoma). The method, boiled down: as §1
For assay [3], the system named is KGN (Other Solid Carcinomas). In outline: as §1
The subject of assay [4] is SK-LU-1 (Lung Adenocarcinoma). In outline: as §1
Assay [5] has as its system A4-Fuk (B-Lymphoblastic Leukemia). In outline:
as §1

For assay [6], the system named is OACM5-1 (Esophageal Adenocarcinoma). In outline:
as §1

Assay [7] relates to SKN (Other Solid Carcinomas). In outline: as §1
Assay [8] relates to NCI-H650 (Lung Adenocarcinoma). In outline:
as §1

Assay [9] relates to SNU-387 (Hepatocellular Carcinoma). The method, boiled down:
as §1

Assay [10] has as its system Ca-Ski (Cervical Carcinoma). In outline:
as §1

In assay [11] the test system is NCI-H522 (Lung Adenocarcinoma). The method, boiled down: as §1
Assay [12] has as its system NCI-H1838 (Lung Adenocarcinoma). In outline:
as §1

The test system of assay [13] is MOLT-4 (T-Lymphoblastic Leukemia). The method, boiled down: as §1
In assay [14] the test system is MDA-MB-453 (Breast Carcinoma). In outline: as §1
Assay [15] relates to NCI-H1355 (Lung Adenocarcinoma). The method, boiled down:
as §1

Assay [16] relates to KOPN-8 (B-Lymphoblastic Leukemia). The method, boiled down: as §1
Assay [17] deals with CADO-ES1 (Ewing's Sarcoma). In outline:
as §1

The test system of assay [18] is Mo-T (Other Blood Carcinomas). In outline:
as §1

For a further assay, the system named is COLO-679 (Melanoma). In outline: as §1
The test system of assay [19] is COLO-668 (Small Cell Lung Carcinoma). In outline: as §1

On to `CN(CCO)CC[C@H](CSc1ccccc1)Nc1ccc(S(=O)(=O)NC(=O)c2ccc(N3CCC([C@@H](O)c4ccccc4-c4ccc(Cl)cc4)CC3)cc2)cc1S(=O)(=O)C(F)(F)F` [AZD4320] + C=CCn1c(=O)c2cnc(Nc3ccc(N4CCN(C)CC4)cc3)nc2n1-c1cccc(C(C)(C)O)n1 [AZD1775] (first compound max 1 µM, partner max 1 µM), for which the “combination Emax” value in [1] stood at 0.278; in [2] it was 0.213; in assay [3], 0.784; in [4], 0.542; in assay [5], 0.898; in [6], 0.635. The “combination Emax” value in assay [7] is 0.586; in assay [8], 0.564; in assay [9], 0.681; in [10] it was 0.96; in assay [11], 0.237; in assay [12] it was 0.541. The “combination Emax” value in assay [13] is 1; in [14] it was 0.285; in [15], 0.594; in assay [16] it was 1; in assay [17], 0.566; in assay [18], 0.984. The “combination Emax” value in the assay with COLO-679 (Melanoma) is 0.521.

For the compound `C[C@@H]1COCCN1c1cc(C2([S@](C)(=N)=O)CC2)nc(-c2ccnc3[nH]ccc23)n1` [AZD6738] + Nc1ccn([C@@H]2O[C@H](CO)[C@@H](O)C2(F)F)c(=O)n1 [Gemcitabine] (first compound max 10 µM, 7x7, partner max 0.3 µM), the “combination Emax” value in assay [1] amounted to 0.801; in [2], 0.583; in assay [19], 0.854; in assay [3], 0.969; in assay [4] it was 0.415; in assay [5] it was 0.962. For the same compound, the “combination Emax” value in assay [7] stood at 0.71; in assay [9], 0.718; in assay [10], 0.883; in assay [11], 0.912; in [13], 1; in assay [14] it was 0.678. The “combination Emax” value worked out at 0.722 in [15], 0.812 in assay [18] and 0.82 with COLO-679 (Melanoma).

As for `C[C@@H](Nc1cc(F)cc(F)c1)c1cc(C(=O)N(C)C)cc2c(=O)cc(N3CCOCC3)oc12` [AZD8186] + C1CN(CCC1(C(=O)N[C@@H](CCO)C2=CC=C(C=C2)Cl)N)C3=NC=NC4=C3C=CN4 [AZD5363] (first compound max 10 µM, 7x7, partner max 10 µM), the “combination Emax” value in [1] was 0.618; in assay [2], 0.189; in [19], 0.327; in assay [3], 0.556; in [4], 0.303; in assay [5] it was 0.76. For the same compound, the “combination Emax” value in assay [7] is 0.557; in assay [9] it was 0.472; in assay [10], 0.463; in [11], 0.0756; in [13] it was 0.437; in [14], 0.573. Further, the “combination Emax” value in assay [15] stood at 0.395; in assay [18], 0.347; in the assay with COLO-679 (Melanoma), 0.273.

In the case of `C[C@@H](Nc1cc(F)cc(F)c1)c1cc(C(=O)N(C)C)cc2c(=O)cc(N3CCOCC3)oc12` [AZD8186] + CC(=O)c1c(C)c2cnc(Nc3ccc(N4CCNCC4)cn3)nc2n(C2CCCC2)c1=O [Palbociclib] (first compound max 10 µM, 7x7, partner max 10 µM), the “combination Emax” value in assay [1] turned out to be 0.566; in [2] it was 0.417; in assay [19] it was 0.378; in assay [3], 0.798; in assay [4], 0.434; in assay [5] it was 0.706. Moreover, the “combination Emax” value worked out at 0.665 in [7]; 0.614 in assay [9]; 0.484 in assay [10]; 0.147 in [11]; 0.661 in assay [13]; 0.578 in assay [14]. In addition, the “combination Emax” value in [15] worked out at 0.425; in assay [18], 0.383; in the assay on COLO-679 (Melanoma) it was 0.269.

With `C[C@@H](Oc1cc(-c2cnn(C3CCNCC3)c2)cnc1N)c1c(Cl)ccc(F)c1Cl` [Crizotinib] + CC1=C(C(=CC=C1)Cl)NC(=O)C2=CN=C(S2)NC3=CC(=NC(=N3)C)N4CCN(CC4)CCO [Dasatinib] (first compound max 10 µM, 7x7, partner max 2 µM), the “combination Emax” value in [1] was determined as 0.815; in [2], 0.462; in [19] it was 0.415; in [3] it was 0.978; in [4], 0.479; in assay [5] it was 0.922. In addition, the “combination Emax” value in assay [7] was 0.866; in [9], 0.743; in [10], 0.942; in assay [11], 0.339; in assay [13] it was 0.826; in assay [14], 0.214. Moreover, the “combination Emax” value was 0.289 in assay [15], 0.383 in assay [18] and 0.297 in the assay with COLO-679 (Melanoma).

With `C[C@@H](Oc1cc(-c2cnn(C3CCNCC3)c2)cnc1N)c1c(Cl)ccc(F)c1Cl` [Crizotinib] + Cn1cnc2c(F)c(Nc3ccc(Br)cc3Cl)c(C(=O)NOCCO)cc21 [Selumetinib] (first compound max 10 µM, 7x7, partner max 10 µM), the “combination Emax” value was determined as 0.323 in assay [1]; 0.12 in assay [2]; 0.852 in assay [19]; 0.816 in assay [3]; 0.34 in assay [4]; 0.942 in assay [5]. Besides, the “combination Emax” value in assay [7] is 0.368; in [9], 0.89; in assay [10], 0.551; in [11] it was 0.117; in assay [13] it was 0.815; in assay [14] it was 0.15. For the same compound, the “combination Emax” value worked out at 0.388 in [15], 0.466 in [18] and 0.798 in the assay with COLO-679 (Melanoma).

Turning to `CS(=O)(=O)CCNCc1ccc(-c2ccc3ncnc(Nc4ccc(OCc5cccc(F)c5)c(Cl)c4)c3c2)o1` [Lapatinib] + Cn1cnc2c(F)c(Nc3ccc(Br)cc3Cl)c(C(=O)NOCCO)cc21 [Selumetinib] (first compound max 10 µM, 7x7, partner max 10 µM), the “combination Emax” value was determined as 0.696 in assay [1]; 0.171 in [2]; 0.493 in [19]; 0.535 in [3]; 0.377 in assay [4]; 0.979 in assay [5]. The “combination Emax” value in assay [7] was determined as 0.341; in assay [9], 0.62; in assay [10], 0.671; in assay [11], 0.257; in [13], 0.501; in assay [14], 0.389. In addition, the entries for the “combination Emax” value (in assay [15]; in [18]; with COLO-679 (Melanoma)) were 0.472, 0.477 and 0.749, respectively.
